T1: S-adenosyl-L-methionine:delta24-sterol-C-methyltransferase (Glycine max) (UniProt Q43445)
T1 sequence (whole entry): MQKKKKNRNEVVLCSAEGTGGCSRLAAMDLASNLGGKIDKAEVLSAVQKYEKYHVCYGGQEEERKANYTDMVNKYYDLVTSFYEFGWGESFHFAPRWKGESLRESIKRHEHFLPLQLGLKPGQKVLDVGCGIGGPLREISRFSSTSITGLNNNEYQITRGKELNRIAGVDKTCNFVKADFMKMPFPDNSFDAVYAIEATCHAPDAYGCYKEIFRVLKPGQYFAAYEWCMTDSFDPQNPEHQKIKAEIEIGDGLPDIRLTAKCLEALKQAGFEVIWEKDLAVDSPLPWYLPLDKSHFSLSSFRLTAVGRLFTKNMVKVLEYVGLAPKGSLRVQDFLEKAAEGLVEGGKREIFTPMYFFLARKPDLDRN

T2: S-adenosyl-L-methionine:delta24-sterol-C-methyltransferase (Glycine max, UniProt Q43445)
T2 sequence (Q43445 whole entry): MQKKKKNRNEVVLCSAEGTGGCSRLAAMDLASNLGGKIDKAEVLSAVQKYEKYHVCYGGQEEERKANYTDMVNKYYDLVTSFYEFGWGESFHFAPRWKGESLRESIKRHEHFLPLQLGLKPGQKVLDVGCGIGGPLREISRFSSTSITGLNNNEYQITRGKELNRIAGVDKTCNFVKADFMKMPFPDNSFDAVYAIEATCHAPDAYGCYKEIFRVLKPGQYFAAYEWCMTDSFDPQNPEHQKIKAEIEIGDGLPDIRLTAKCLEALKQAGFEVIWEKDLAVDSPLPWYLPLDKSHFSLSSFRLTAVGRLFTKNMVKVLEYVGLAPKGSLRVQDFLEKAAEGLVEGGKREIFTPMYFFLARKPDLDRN


How the values were obtained:
[1] = molecular target: T1, S-adenosyl-L-methionine:delta24-sterol-C-methyltransferase (Glycine max); assay: (§1) Inhibition of soybean recombinant SMT expressed in Escherichia coli
[2] = molecular target: T2, S-adenosyl-L-methionine:delta24-sterol-C-methyltransferase; assay: as §1
[3] = molecular target: T1, S-adenosyl-L-methionine:delta24-sterol-C-methyltransferase (Glycine max); assay: Ratio of Kcat to Kinact for soybean recombinant SMT expressed in Escherichia coli
[4] = molecular target: T1, S-adenosyl-L-methionine:delta24-sterol-C-methyltransferase (Glycine max); assay: Inhibition of soybean recombinant SMT expressed in Escherichia coli assessed as C-methylation in presence of 50 uM cycloartenol substrate; design: scale not given: the % may be the effect or the level left
[5] = molecular target: T1, S-adenosyl-L-methionine:delta24-sterol-C-methyltransferase (Glycine max); assay: Inhibition of soybean recombinant SMT expressed in Escherichia coli assessed as C-methylation in presence of 100 uM cycloartenol substrate; design: scale not given: the % may be the effect or the level left
[6] = substrate: C#C/C(C)=C/CCC(C)[C@H]1CC[C@@]2(C)[C@@H]3CC[C@H]4C(C)(C)[C@@H](O)CCC45CC35CC[C@]12C; assay: (§2) Activity of soybean recombinant SMT expressed in Escherichia coli; conditions: Glycine max
[7] = substrate: C=C/C(C)=C/CCC(C)[C@H]1CC[C@@]2(C)[C@@H]3CC[C@H]4C(C)(C)[C@@H](O)CCC45CC35CC[C@]12C; assay: as §2; conditions: Glycine max

Molecule	Kinact [1] [min⁻¹]	Ki [2] [µM]	Ratio [3]	also measured
C=C/C(C)=C/CCC(C)[C@H]1CC[C@@]2(C)[C@@H]3CC[C@H]4C(C)(C)[C@@H](O)CCC45CC35CC[C@]12C (stereo partly specified)	0.24	47	0.001	Activity [4]: 25%; Activity [5]: 45%
CC(C)=CCC[C@@H](C)[C@H]1CC[C@@]2(C)[C@@H]3CC[C@H]4C(C)(C)[C@@H](O)CCC45CC35CC[C@]12C (stereo partly specified)	0.29	42		
CC(C)SCC[C@@H](C)[C@H]1CC[C@@]2(C)[C@@H]3CC[C@H]4C(C)(C)[C@@H](O)CCC45CC35CC[C@]12C (stereo partly specified)	0.3	2		
C#C/C(C)=C/CCC(C)[C@H]1CC[C@@]2(C)[C@@H]3CC[C@H]4C(C)(C)[C@@H](O)CCC45CC35CC[C@]12C (stereo partly specified)	0.06		0.001	IC50 [2]: 67 µM
S-adenosyl-L-methionine:delta24-sterol-C-methyltransferase (Glycine max), Q43445 (protein) MQKKKKNRNEVVLCSAEGTGGCSRLAAMDLASNLGGKIDKAEVLSAVQKYEKYHVCYGGQEEERKANYTDMVNKYYDLVTSFYEFGWGESFHFAPRWKGESLRESIKRHEHFLPLQLGLKPGQKVLDVGCGIGGPLREISRFSSTSITGLNNNEYQITRGKELNRIAGVDKTCNFVKADFMKMPFPDNSFDAVYAIEATCHAPDAYGCYKEIFRVLKPGQYFAAYEWCMTDSFDPQNPEHQKIKAEIEIGDGLPDIRLTAKCLEALKQAGFEVIWEKDLAVDSPLPWYLPLDKSHFSLSSFRLTAVGRLFTKNMVKVLEYVGLAPKGSLRVQDFLEKAAEGLVEGGKREIFTPMYFFLARKPDLDRN				Km [6]: 2 µM; kcat [6]: 5e-05 min⁻¹; Km [7]: 5 µM; kcat [7]: 0.0003 min⁻¹
